Experiment [1] deals with T1, human ACSS2 protein (Homo sapiens, UniProt Q9NR19).
T1 construct: purchased OriGene Technologies, Inc
Kind of experiment: ACSS2 cell-free activity assay (pyrophosphatase-coupled, Biomol green). To be noted: 10 nM human ACSS2, 90 minutes at 37 C, absorbance at 620 nm; read-out: ACSS2 Biochemical IC50. As for the experimental part: ACSS2 Cell-Free Activity Assay (Cell-Free IC50)
The assay is based on a coupling reaction with Pyrophosphatase: ACSS2 is converting ATP+CoA+Acetate=>AMP+pyrophosphate+Acetyl-CoA (Ac-CoA). Pyrophosphatase converts pyrophosphate, a product of the ACSS2 reaction, to phosphate which can be detected by measuring the absorbance at 620 nm after incubation with the Biomol green reagent (Enzo life Science, BML-AK111).
(§1) Cell Free IC50 Determination:
10 nM of human ACSS2 protein (OriGene Technologies, Inc) was incubated for 90 minutes at 37 C with various compounds' concentrations in a reaction containing 50 mM Hepes pH 7.5, 10 mM DTT, 90 mM KCl, 0.006% Tween-20, 0.1 mg/ml BSA, 2 mM MgCl2, 10 μM CoA, 5 mM NaAc, 300 μM ATP and 0.5 U/ml Pyrophosphatase (Sigma). At the end of the reaction, Biomol Green was added for 30 minutes at RT and the activity was measured by reading the absorbance at 620 nm. IC50 values were calculated using non-linear regression curve fit with 0% and 100% constrains (CDD Vault, Collaborative Drug Discovery, Inc.).

For experiment [2], the target named is T2, human ACSS1 protein (Homo sapiens, UniProt Q9NUB1).
T2 construct: purchased MyBioSource
T2 sequence (Q9NUB1 38-689): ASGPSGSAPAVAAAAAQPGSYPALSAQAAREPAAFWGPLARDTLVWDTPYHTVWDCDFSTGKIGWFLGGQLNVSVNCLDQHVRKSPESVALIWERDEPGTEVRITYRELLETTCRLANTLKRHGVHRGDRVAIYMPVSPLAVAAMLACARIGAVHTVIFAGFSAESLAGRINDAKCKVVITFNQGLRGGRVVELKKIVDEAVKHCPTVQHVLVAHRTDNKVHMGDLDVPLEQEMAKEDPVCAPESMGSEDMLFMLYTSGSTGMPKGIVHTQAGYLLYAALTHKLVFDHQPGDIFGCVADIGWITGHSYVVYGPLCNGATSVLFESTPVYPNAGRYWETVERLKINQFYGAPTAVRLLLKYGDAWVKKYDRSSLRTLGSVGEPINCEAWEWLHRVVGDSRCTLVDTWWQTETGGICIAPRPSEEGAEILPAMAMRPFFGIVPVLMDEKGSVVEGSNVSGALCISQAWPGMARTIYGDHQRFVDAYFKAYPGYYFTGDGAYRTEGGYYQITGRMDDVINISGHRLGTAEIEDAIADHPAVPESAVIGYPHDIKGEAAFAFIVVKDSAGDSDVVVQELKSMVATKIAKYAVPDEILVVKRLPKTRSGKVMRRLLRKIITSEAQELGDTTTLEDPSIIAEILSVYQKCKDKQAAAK
Kind of experiment: ACSS1 cell-free activity assay (pyrophosphatase-coupled, Biomol green). The format is biochemical. The following applies: 5 nM human ACSS1, 30 minutes at room temperature, absorbance at 620 nm. As for the experimental part:
ACSS1 Cell-Free Activity Assay (Cell-Free IC50)
The assay is based on a coupling reaction with Pyrophosphatase: ACSS1 is converting ATP+CoA+Acetate=>AMP+pyrophosphate+Acetyl-CoA (Ac-CoA). Pyrophosphatase converts pyrophosphate, a product of the ACSS1 reaction, to phosphate which can be detected by measuring the absorbance at 620 nm after incubation with the Biomol green reagent (Enzo life Science, BML-AK111).
as §1
5 nM of human ACSS1 protein (MyBioSource) was incubated for 30 minutes at room temperature with various compounds' concentrations in a reaction containing 50 mM Hepes pH 7.5, 10 mM DTT, 90 mM KCl, 0.006% Tween-20, 0.1 mg/ml BSA, 2 mM MgCl2, 15 μM CoA, 5 mM NaAc, 300 μM ATP and 0.5 U/ml Pyrophosphatase (Sigma). At the end of the reaction, Biomol Green was added for 30 minutes at RT and the activity was measured by reading the absorbance at 620 nm. IC50 values were calculated using non-linear regression curve fit with 0% and 100% constrains (CDD Vault, Collaborative Drug Discovery, Inc.).

The results in this text go back to patent publication US20230174507A1, “IMIDAZOLE 3-OXIDE DERIVATIVE BASED ACSS2 INHIBITORS AND METHODS OF USE THEREOF” (METABOMED LTD., priority 2020, published 2023).

By IC50 is commonly meant the concentration at which inhibition is half-maximal.

Each structure is given as a SMILES string.

T1 sequence (Q9NR19 whole entry): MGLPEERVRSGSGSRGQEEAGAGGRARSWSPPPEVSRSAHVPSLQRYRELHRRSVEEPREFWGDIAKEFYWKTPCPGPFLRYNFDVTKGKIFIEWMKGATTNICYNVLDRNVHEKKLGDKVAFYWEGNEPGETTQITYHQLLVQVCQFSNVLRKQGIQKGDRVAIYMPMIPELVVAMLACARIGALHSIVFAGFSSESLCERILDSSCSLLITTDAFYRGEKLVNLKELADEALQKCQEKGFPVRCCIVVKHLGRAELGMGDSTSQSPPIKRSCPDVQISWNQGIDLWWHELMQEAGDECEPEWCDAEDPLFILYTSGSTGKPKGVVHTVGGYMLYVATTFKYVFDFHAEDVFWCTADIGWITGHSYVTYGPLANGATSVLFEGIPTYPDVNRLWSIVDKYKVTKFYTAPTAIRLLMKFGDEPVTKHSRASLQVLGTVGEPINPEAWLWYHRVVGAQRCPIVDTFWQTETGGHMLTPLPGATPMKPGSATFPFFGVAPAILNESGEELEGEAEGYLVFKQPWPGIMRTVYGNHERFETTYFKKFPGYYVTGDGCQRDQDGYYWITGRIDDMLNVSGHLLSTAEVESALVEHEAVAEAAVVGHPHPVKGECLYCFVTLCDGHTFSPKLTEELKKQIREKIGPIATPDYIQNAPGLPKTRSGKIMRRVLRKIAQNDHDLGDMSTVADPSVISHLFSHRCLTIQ

As for `COc1ccc(-c2[nH]c(C)c(C(=O)Nc3cccc(C(O)(O)C(F)(F)F)c3)[n+]2[O-])cc1-c1c(C)cccc1C` [Compound 195, 2-(6-methoxy-2′,6′-dimethyl-[1,1′-biphenyl]-3-yl)-5-methyl-4-((3-(2,2,2-trifluoro-1,1-dihydroxyethyl)phenyl)carbamoyl)-1H-imidazole 3-oxide], the IC50 in experiment [1] is over 30 nM. Moreover, the “ACSS1 Biochemical IC50 (nM)” value in experiment [2] was “Inactive”.
For `CCC(F)(F)c1cccc(NC(=O)c2c(C)n(COP(=O)(O)O)c(-c3ccc(OC)c(-c4c(C)cccc4C)c3)[n+]2[O-])c1` [Compound 193, 4-((3-(1,1-difluoropropyl)phenyl)carbamoyl)-2-(6-methoxy-2′,6′-dimethyl-[1,1′-biphenyl]-3-yl)-5-methyl-1-((phosphonooxy)methyl)-1H-imidazole 3-oxide], in that order: over 30 nM and “Inactive”.
For `COc1ccc(-c2[nH]c(C)c(C(=O)Nc3cccc(CC(F)(F)F)c3)[n+]2[O-])cc1-c1c(C)cccc1C` [Compound 194, 2-(6-methoxy-2′,6′-dimethyl-[1,1′-biphenyl]-3-yl)-5-methyl-4-((3-(2,2,2-trifluoroethyl)phenyl)carbamoyl)-1H-imidazole 3-oxide], in that order: 1 to 30 nM and “Inactive”.
With `CCC(F)(F)c1cccc(NC(=O)c2c(C)[nH]c(-c3ccc(OC)c(N4CCOCC4)c3)[n+]2[O-])c1` [Compound 150, 4-((3-(1,1-difluoropropyl)phenyl)carbamoyl)-2-(4-methoxy-3-morpholinophenyl)-5-methyl-1H-imidazole 3-oxide], the concentration for half-maximal inhibition (IC50) in experiment [1] was in the range of 1 to 30 nM. In addition, the “ACSS1 Biochemical IC50 (nM)” value in experiment [2] is “Inactive”.
As for `COc1ccc(-c2[nH]c(C)c(C(=O)Nc3cccc(C(=O)N4CCC4)c3)[n+]2[O-])cc1-c1c(C)cccc1C` [Compound 170, 4-((3-(azetidine-1-carbonyl)phenyl)carbamoyl)-2-(6-methoxy-2′,6′-dimethyl-[1,1′-biphenyl]-3-yl)-5-methyl-1H-imidazole 3-oxide], the IC50 in experiment [1] is under 1 nM. Moreover, the “ACSS1 Biochemical IC50 (nM)” value in experiment [2] is “Inactive”.
On the same counts, the results for `COc1ccc(-c2[nH]c(C)c(C(=O)Nc3ccc4[nH]cnc4c3)[n+]2[O-])cc1-c1c(C)cccc1C` [Compound 173, 4-((1H-benzo[d]imidazol-5-yl)carbamoyl)-2-(6-methoxy-2′,6′-dimethyl-[1,1′-biphenyl]-3-yl)-5-methyl-1H-imidazole 3-oxide] are over 30 nM and “Inactive”.
On the same counts, the results for `CCC(F)(F)c1cccc(NC(=O)c2c(C)n(COP(=O)(O)OC(C)(C)C)c(-c3ccc(OC)c(-c4c(C)cccc4C)c3)[n+]2[O-])c1` [Compound 188, 1-(((tert-butoxy(hydroxy)phosphoryl)oxy)methyl)-4-((3-(1,1-difluoropropyl)phenyl)carbamoyl)-2-(6-methoxy-2′,6′-dimethyl-[1,1′-biphenyl]-3-yl)-5-methyl-1H-imidazole 3-oxide] are 1 to 30 nM and “Inactive”.
On the same counts, the results for `Cc1cccc(C)c1-c1cc(-c2[nH]c(C)c(C(=O)Nc3cccc(C(F)(F)C4CC4)c3)[n+]2[O-])cc(C(C)C)c1` [Compound 134, 4-((3-(cyclopropyldifluoromethyl)phenyl)carbamoyl)-2-(5-isopropyl-2′,6′-dimethyl-[1,1′-biphenyl]-3-yl)-5-methyl-1H-imidazole 3-oxide] are 1 to 30 nM and “Inactive”.
Consider `Cc1cccc(C)c1-c1cc(-c2ccccc2)cc(-c2[nH]c(C)c(C(=O)Nc3cccc(C(F)(F)C4CC4)c3)[n+]2[O-])c1` [Compound 133, 4-((3-(cyclopropyldifluoromethyl)phenyl)carbamoyl)-2-(2,6-dimethyl-[1,1′:3′,1″-terphenyl]-5′-yl)-5-methyl-1H-imidazole 3-oxide], for which the IC50 in experiment [1] is 1 to 30 nM. The “ACSS1 Biochemical IC50 (nM)” value in experiment [2] is “Inactive”.
On the same counts, the results for `C/C=C/c1cc(C)c(-c2cc(-c3[nH]c(C)c(C(=O)Nc4cccc(C(F)(F)CC)c4)[n+]3[O-])ccc2OC)c(C)c1` [Compound 159, (E)-4-((3-(1,1-difluoropropyl)phenyl)carbamoyl)-2-(6-methoxy-2′,6′-dimethyl-4′-(prop-1-en-1-yl)-[1,1′-biphenyl]-3-yl)-5-methyl-1H-imidazole 3-oxide] are 1 to 30 nM and “Inactive”.
Regarding `Cc1cccc(C)c1-c1cc(Br)cc(-c2[nH]c(C)c(C(=O)Nc3cccc(C(F)(F)C4CC4)c3)[n+]2[O-])c1` [Compound 136, 2-[3-bromo-5-(2,6-dimethylphenyl)phenyl]-N-[3-[cyclopropyl(difluoro)methyl]phenyl]-5-methyl-3-oxido-1H-imidazol-3-ium-4-carboxamide], the IC50 in experiment [1] was 1 to 30 nM. For the same compound, the “ACSS1 Biochemical IC50 (nM)” value in experiment [2] was “Inactive”.
With `COc1cc(F)c(-c2[nH]c(C)c(C(=O)Nc3cccc(C(F)(F)F)c3)[n+]2[O-])nc1-c1c(C)cc(F)cc1C` [Compound 209, 2-(3-fluoro-6-(4-fluoro-2,6-dimethylphenyl)-5-methoxypyridin-2-yl)-5-methyl-4-((3-(trifluoromethyl)phenyl)carbamoyl)-1H-imidazole 3-oxide], the IC50 in experiment [1] lay within 1 to 30 nM. The “ACSS1 Biochemical IC50 (nM)” value in experiment [2] is “Inactive”.
As for `COc1ccc(-c2[nH]c(C)c(C(=O)Nc3cccc(C(=O)N4CCCCC4)c3)[n+]2[O-])cc1-c1c(C)cccc1C` [Compound 139, 2-(6-methoxy-2′,6′-dimethyl-[1,1′-biphenyl]-3-yl)-5-methyl-4-((3-(piperidine-1-carbonyl)phenyl)carbamoyl)-1H-imidazole 3-oxide], in experiment [1], the IC50 was over 30 nM. The “ACSS1 Biochemical IC50 (nM)” value in experiment [2] was “Inactive”.
For `COc1cc(F)c(-c2[nH]c(C)c(C(=O)Nc3cccc(C(F)(F)F)c3)[n+]2[O-])nc1-c1c(F)cccc1F` [Compound 208, 2-(6-(2,6-difluorophenyl)-3-fluoro-5-methoxypyridin-2-yl)-5-methyl-4-((3-(trifluoromethyl)phenyl)carbamoyl)-1H-imidazole 3-oxide], in that order: 1 to 30 nM and “Inactive”.
For `COc1ccc(-c2[nH]c(C)c(C(=O)Nc3cccc(C(=O)N4CCNCC4)c3)[n+]2[O-])cc1-c1c(C)cccc1C` [Compound 153, 2-(6-methoxy-2′,6′-dimethyl-[1,1′-biphenyl]-3-yl)-5-methyl-4-((3-(piperazine-1-carbonyl)phenyl)carbamoyl)-1H-imidazole 3-oxide], in that order: over 30 nM and “Inactive”.
For `COc1ccc(-c2[nH]c(C)c(C(=O)Nc3cccc(C(=O)N4CCCC4)c3)[n+]2[O-])cc1-c1c(C)cccc1C` [Compound 138, 2-[3-(2,6-dimethylphenyl)-4-methoxy-phenyl]-5-methyl-3-oxido-N-[3-(pyrrolidine-1-carbonyl)phenyl]-1H-imidazol-3-ium-4-carboxamide], in that order: over 30 nM and “Inactive”.
For the compound `COc1ccc(-c2[nH]c(C)c(C(=O)Nc3cccc(C(F)(F)C4(C)CC4)c3)[n+]2[O-])cc1-c1c(C)cccc1C` [Compound 151, 4-((3-(difluoro(1-methylcyclopropyl)methyl)phenyl)carbamoyl)-2-(6-methoxy-2′,6′-dimethyl-[1,1′-biphenyl]-3-yl)-5-methyl-1H-imidazole 3-oxide], the IC50 in experiment [1] was over 30 nM. For the same compound, the “ACSS1 Biochemical IC50 (nM)” value in experiment [2] is recorded as “Inactive”.
